# Test results published in patent US9555040B2, “Methods of treating proliferative diseases” (Ambit Biosciences Corporation, priority 2009, dated 2017).
# Tests used:
# [1] = Phase I clinical trial: plasma pharmacokinetics; type: in vivo, human
# Protocol: In addition, plasma samples were collected on day 15 (˜24 hrs post final dose) to evaluate steady-state trough levels. Bioanalysis of the compound was initially conducted at Consolidated Laboratory Services (CLS), Van Nuys, Calif. […] The coefficient of variation (CV %) for AUCO-24 at steady-state is modest at the lowest dose of 12 mg (33%) and high for the 450 mg cohort (82%). While the variability tended to be higher at higher doses, there was not a clear relationship between variability and either dose or […].
# This analysis was conducted at MicroConstants, San Diego, Calif.
# [2] = Animal toxicology studies; type: in vivo
# [3] = tested on: relapsed or refractory acute myeloid leukemia; assay: Phase I clinical trial: efficacy, responses per modified Cheson criteria; type: in vivo, human
# Protocol: The study was open labeled and designed to determine the safety, tolerability, dose limiting toxicity (DLT), pharmacokinetics and pharmacodynamics of escalating doses.
# The study included adult patients with relapsed or refractory AML, or unsuitable for induction chemotherapy.
# Patients with clinical benefit were allowed to continue for additional cycles at the discretion of the investigator. The protocol was subsequently amended to allow for continuous dosing of the compound starting at 200 mg on Day 1.
# Preliminary response data was evaluated in all 76 patients treated with the compound.
# Responses were defined per modified Cheson criteria.
# [4] = Phase I clinical trial: safety, tolerability, dose limiting toxicity; type: in vivo, human
# Source text: This study was the first human clinical trial of the compound of Formula I or a pharmaceutically acceptable salt or solvate thereof in humans having relapsed or refractory acute myeloid leukemia. The study was open labeled and designed to determine the safety, tolerability, dose limiting toxicity (DLT), pharmacokinetics and pharmacodynamics of escalating doses.
# The study included adult patients with relapsed or refractory AML, or unsuitable for induction chemotherapy. Demographics and baseline characteristics were as follows: median age was 60 years, with a range of 23-86 years. Sixty percent of the patients were male. […] Eleven (15%) patients had prior allogeneic hematopoietic stem cell transplant (HSCT) and 13 (17%) patients had secondary AML with antecedent MDS or MDS/MPD. A total of 20 patients had FLT3 mutations (17 ITD and 3 D835), 43 were wild-type, and 13 were undetermined.
# Patients with clinical benefit were allowed to continue for additional cycles at the discretion of the investigator. The protocol was subsequently amended to allow for continuous dosing of the compound starting at 200 mg on Day 1. In addition to patients included in the 200 mg (17 patients) and 300 mg (8 patients) continuous dosing cohort, there were at least 8 patients who, at the investigators discretion and per protocol, received continuous dosing after cycle 1 of intermittent dosing ranging from 19-187 days.
# In addition, the safety profile was similar between patients receiving continuous dosing and those on the intermittent schedule. These included general disorders (e.g., pyrexia and fatigue), gastrointestinal disorders (e.g., nausea, diarrhea and vomiting) and hematologic disorders (eg, anemia, neutropenia and thrombocytopenia).
# Out of the 76 patients treated with the compound in this study, 38 patients (50%) reported a total of 94 serious adverse events (SAEs) (defined as CTC Grade 3 or greater). The majority of the SAEs were considered by the investigator to be not related to study treatment. Only 6 patients (7.9%) reported SAEs that were initially considered to be related to treatment with the compound. These included one patient with lung infection, one patient with vomiting and one patient with nausea, anorexia, and upper abdominal pain. The investigator subsequently revised the event of anorexia for the patient to non-serious. In addition, three patients were noted by the site investigators using local ECG analysis to have reported Grade 3 QTc prolongation of >500 ms which was considered to be a dose-limiting toxicity for the study according to the protocol.
# Based on the site reported dose-limiting toxicity of Grade 3 QTc prolongation, a detailed evaluation of the cardiac safety of the compound was conducted. As defined in the protocol, a single 12-lead electrocardiogram (ECG) had been performed using standardized equipment at the site at Visits 1 (screen), 2 (Baseline—at Hours 0, 2, and 4), 4 (Day 8 at Hours 0 and 4), and depending on the version of the protocol active at the time of assessment for each patient, 6 (Day 14 or 15), 7 (Day 21 or 22), 8 (Day 28 or 29), 9 (Day 36), 10 (Day 43), 11 (Day 50), 12 (Day 57) and at the end of the study or early termination. ECG assessments and interpretations initially were performed by the site's cardiologist or other qualified site personnel. To improve upon the accuracy of these locally-analyzed data, a central digitized blinded analysis of all ECGs collected to date was undertaken by a core ECG laboratory (EResearchTechnology in Philadelphia, Pa.). Due to some issues with readability, 72 patients (out of 76 patients enrolled in the study) were included in this analysis. […] The phase I study was not designed to define the ECG effects of the compound, which will be more closely monitored in the phase II study.
# pSTAT5 = assay: Pharmacodynamics: pSTAT5 in patient samples; type: in vivo, human; conditions: subset of 17 patients, very preliminary
# Source text: STATS is a downstream signaling pathway activated by FLT3 following binding of FLT3 ligand leading to receptor dimerization, increased kinase activity and activation of downstream signaling pathways including STATS.
# [5] = FLT3-ITD patients, 200 mg continuous dosing (n=5)
# [6] = patients with FLT3-ITD mutation (n=17)
structure (smiles),measurement,setting,value
CC(C)(CO)c1cc(NC(=O)Nc2ccc(-c3cn4c(n3)sc3cc(OCCN5CCOCC5)ccc34)cc2)no1 [compound of formula II],average steady state plasma ratio of formula II/I,"[1]; human plasma, n=60",0.4
same,"plasma ratio of compounds of formula II/I, highest in one patient","[1]; human plasma, n=60",≤ 3.14
same,steady-state plasma level,[1]; patients dosed at 200 mg of the compound of formula I,~300 ng/mL
"CC(C)(C)c1cc(NC(=O)Nc2ccc(-c3cn4c(n3)sc3cc(OCCN5CCOCC5)ccc34)cc2)no1 [compound of formula I, N-(5-tert-butyl-isoxazol-3-yl)-N′-{4-[7-(2-morpholin-4-yl-ethoxy)imidazo[2,1-b][1,3]benzothiazol-2-yl]phenyl}urea]",target organ toxicity,[2],Bone marrow hypocellularity
same,dose dependence of steady-state plasma exposure (AUC),"[1]; human, in vivo",increased in a dose proportional manner
same,peak and trough variation of plasma levels,"[1]; human, in vivo",minimal peak and trough variation
same,time to steady-state plasma exposure,"[1]; human, in vivo",≤ 8 days
same,coefficient of variation (CV %) for AUC0-24 at steady-state,"[1]; human, in vivo, 12 mg",33%
same,coefficient of variation (CV %) for AUC0-24 at steady-state,"[1]; human, in vivo, 450 mg",82%
same,half-life,"[1]; human, in vivo, effective half-life",~36 h
same,oral bioavailability,"[1]; human, in vivo, po",orally bioavailable
same,half-life,"[1]; human, in vivo, terminal T1/2",31.2 h
same,bone marrow responses within the first 29 days of treatment (Cycle 1),[3]; 15/22 responders,68%
same,CR,[3]; [5],1 patients
same,CRi,[3]; [5],1 patients
same,CRp,[3]; [5],1 patients
same,PR,[3]; [5],2 patients
same,overall response rate (CR+CRp+CRi+PR),"[3]; FLT3-ITD patients, 200 mg continuous dosing, 5/5",100%
same,CR with complete hematologic recovery,[3]; all 76 patients,2 patients
same,CR with incomplete platelet and neutrophil recovery (CRi),[3]; all 76 patients,4 patients
same,CR with incomplete platelet recovery (CRp),[3]; all 76 patients,4 patients
same,"patients achieving complete remission (CR, all types)",[3]; all 76 patients,Ten
same,patients with partial remission (PR),[3]; all 76 patients,Fourteen
same,peripheral blast reduction (>25% at baseline with >50% decrease post-treatment to 0-25%),[3]; all patients,most patients had a peripheral blast reduction
same,overall response (CR+PR),"[3]; all patients, 12 mg-450 mg, 24/76",32%
same,patients reporting a response after Cycle 2,[3]; of the remaining 7 responders,3 patients
same,patients reporting a response within 57 days (Cycle 2),[3]; of the remaining 7 responders,4 patients
same,CR,[3]; [6],1 patients
same,CRi,[3]; [6],3 patients
same,CRp,[3]; [6],1 patients
same,PR,[3]; [6],6 patients
same,overall response rate,"[3]; patients with FLT3-ITD mutation, 11/17",65%
same,median duration of remission,"[3]; range, 4 to 61+ weeks",14.1 weeks
same,30-day treatment-related mortality,"[4]; 76 patients, to date",no 30-day treatment-related mortality
same,patients who died during the study,"[4]; all deaths disease or comorbidity associated, not treatment related",12 patients
same,grade of the majority of treatment-related adverse events,"[4]; both, human, in vivo",CTC Grade 1 and 2
same,patients reporting SAEs initially considered related to treatment,"[4]; both, human, in vivo",7.9%
same,patients reporting serious adverse events (CTC Grade 3 or greater),"[4]; both, human, in vivo",50%
same,total number of serious adverse events reported,"[4]; both, human, in vivo",94
same,"liver or kidney abnormalities as drug-related serious adverse events (BUN, creatinine, ALT, AST, ALP, bilirubin)","[4]; human, in vivo",no liver or kidney abnormalities
same,patients with Grade 3 QTc prolongation of >500 ms (dose-limiting toxicity),"[4]; human, in vivo",three
same,effect on pSTAT5,pSTAT5,dose-dependent effect is consistent with that observed with pFLT3
